Laboratory results from PubChem BioAssay (NCI).
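Protocol summary: plate cells (96-well), add compound at 5 concentrations, incubate 48 h, interpolate endpoints linearly. Here, GI50 denotes the concentration required for 50% inhibition of growth. TGI: concentration producing complete growth inhibition.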

Assays:
Assay in all cases: growth of human tumour cells (NCI), 48 h
HCC-2998 colon = tested on: HCC-2998 colon
K-562 leukemia = tested on: K-562 leukemia
SW-620 colon = tested on: SW-620 colon
HL-60(TB) leukemia = tested on: HL-60(TB) leukemia
OVCAR-5 ovarian = tested on: OVCAR-5 ovarian
HCT-116 colon = tested on: HCT-116 colon
SK-OV-3 ovarian = tested on: SK-OV-3 ovarian
ACHN renal = tested on: ACHN renal
SN12C renal = tested on: SN12C renal
BT-549 breast = tested on: BT-549 breast

| Structure (SMILES) | TGI (HCC-2998 colon) [µM] | TGI (K-562 leukemia) [µM] | TGI (SW-620 colon) [µM] | TGI (HL-60(TB) leukemia) [µM] | TGI (OVCAR-5 ovarian) [µM] | TGI (HCT-116 colon) [µM] | TGI (SK-OV-3 ovarian) [µM] | TGI (ACHN renal) [µM] | TGI (SN12C renal) [µM] | TGI (BT-549 breast) [µM] | GI50 (BT-549 breast) [µM] | GI50 (HCC-2998 colon) [µM] | GI50 (SK-OV-3 ovarian) [µM] | GI50 (K-562 leukemia) [µM] | GI50 (SW-620 colon) [µM] | GI50 (OVCAR-5 ovarian) [µM] | GI50 (ACHN renal) [µM] | GI50 (HCT-116 colon) [µM] | GI50 (SN12C renal) [µM] |
| --- | --- | --- | --- | --- | --- | --- | --- | --- | --- | --- | --- | --- | --- | --- | --- | --- | --- | --- | --- |
| CC(=O)c1ccc(N2CCN(C3=CC(=O)c4c(O)ccc(O)c4C3=O)CC2)cc1 | > 100 | > 100 | > 100 | 38.6 | > 100 | > 100 |  |  |  |  |  |  |  |  |  |  |  |  |  |
| Cc1occ2c1C(=O)CC1C2[C@@H](O)CC2C(C)(C)CCC[C@]12C (stereo partly specified) | > 100 | > 100 | > 100 | > 100 |  | > 100 | > 100 | > 100 | > 100 |  |  |  |  |  |  |  |  |  |  |
| Cc1cc(S(=O)(=O)Nc2nc3ccccc3n2-c2ccccc2)c(S)cc1Cl | > 100 | > 100 | > 100 | > 100 | > 100 | > 100 |  | > 100 |  | > 100 |  |  |  |  |  |  |  |  |  |
| O=S(=O)(O)c1cc(O)c2c(O)c(N=Nc3cccc4ccccc34)c(S(=O)(=O)O)cc2c1 |  | > 100 | > 100 |  | > 100 | > 100 | > 100 | > 100 | > 100 | > 100 |  |  |  |  |  |  |  |  |  |
| O/N=C1\CCc2nonc2\C1=N/Nc1ccccc1 | > 100 | > 100 | > 100 | > 100 | > 100 | > 100 | > 100 | > 100 | > 100 |  |  |  |  |  |  |  |  |  |  |
| O=C(O)c1cc(Cl)cc2c1NC1(N2)C(=O)Nc2ccccc21 (stereo unspecified) | > 100 | > 100 | > 100 |  | > 100 | > 100 | > 100 | > 100 | > 100 | > 100 |  |  |  |  |  |  |  |  |  |
| CN(C)C(=O)C(F)(F)C(c1ccc(Br)cc1)C1C(=O)N(C)C(=O)N(C)C1=O (stereo unspecified) | > 100 | > 100 | > 100 |  | > 100 | > 100 | > 100 | > 100 |  | > 100 |  |  |  |  |  |  |  |  |  |
| COC(=O)C1=C(C)N(NC(=O)c2ccccc2)C2(O)CCCC(=O)C12C (stereo unspecified) |  |  | > 100 |  | > 100 | > 100 | > 100 | > 100 | > 100 |  |  |  |  |  |  |  |  |  |  |
| C/C(=C\Cc1cc(O)ccc1O)CCc1c(C)c(O)c(O)c(C=O)c1C | > 100 | > 100 | > 100 | > 100 |  | 40.3 | 95.7 | 52.8 | 77.8 |  |  |  |  |  |  |  |  |  |  |
| N#Cc1c(Nc2nc3ccccc3s2)c2ccccc2n2c1nc1ccccc12 | > 100 |  | > 100 | > 100 | > 100 | > 100 |  | > 100 | > 100 | > 100 |  |  |  |  |  |  |  |  |  |
| COC(=O)/C(=C\c1ccco1)P(=O)(OC)OC | > 100 | > 100 | > 100 |  | 31.8 | > 100 | > 100 | > 100 | > 100 | > 100 |  |  |  |  |  |  |  |  |  |
| CN(/N=N/c1nc[nH]c1C(N)=O)C1CCCCC1 | > 100 |  | > 100 | > 100 | > 100 | > 100 | > 100 | > 100 | > 100 |  |  |  |  |  |  |  |  |  |  |
| Clc1nc(Nc2nc3ccccc3[nH]2)nc(Cl)c1Cc1ccccc1 |  | > 100 | > 100 | > 100 | > 100 | > 100 | > 100 | > 100 | > 100 | > 100 |  |  |  |  |  |  |  |  |  |
| Oc1nc(N/N=C/c2ccccc2)[nH]c1/C=C1\C=Nc2ccccc21 |  | > 100 | > 100 | > 100 | > 100 | > 100 | > 100 | > 100 | > 100 | > 100 |  |  |  |  |  |  |  |  |  |
| CC(=O)O[C@H]1CN(S(=O)(=O)c2ccc(C)cc2)C[C@@H]1C1CCCCC1 | > 100 | > 100 | > 100 |  | > 100 |  | > 100 | > 100 |  |  |  |  |  |  |  |  |  |  |  |
| CN(C)Cc1cc(C(=O)/C=C/c2cccc(Cl)c2)cc(CN(C)C)c1O | 23.8 | 11.4 | 17.5 | 4.58 | 19 | 13.3 |  | 10.3 | 11.4 | 25.8 |  |  |  |  |  |  |  |  |  |
| C#CCSc1nc(N)c2ncn(C3OC(COP(=O)(O)O)C(O)C3O)c2n1 (stereo unspecified) | > 239 | > 239 | > 239 | > 239 | > 239 | > 239 | > 239 | > 239 | > 239 |  |  |  |  |  |  |  |  |  |  |
| CC(=O)Nc1ccc(C(=O)NN2C(=O)C(Cl)C2c2ccc(O)cc2)cc1 (stereo unspecified) |  | > 100 | > 100 | > 100 | > 100 | > 100 | > 100 | > 100 | > 100 |  |  |  |  |  |  |  |  |  |  |
| CCCCc1c2c(nc3c1CCc1cc4cc5c(nc4nc1-3)-c1nc3c(c(CCCC)c1CC5)CCC/C3=C\c1ccccc1)/C(=C/c1ccccc1)CCC2 | > 100 | > 100 | > 100 | > 100 |  | > 100 | > 100 | > 100 | > 100 |  |  |  |  |  |  |  |  |  |  |
| COc1cc(OC)cc(-c2n/c(=C\c3c(O)[nH]c4ccc(Cl)cc34)cc3c2=Nc2ccccc2-3)c1 | 19.5 | 6.29 | 8 |  | 63.8 | 3.43 | 26 | 20.7 | 17.2 | 9.75 | 3 | 4.22 | 10.2 | 2.72 | 2.66 | 20.5 | 5.37 | 1.9 | 3.73 |
| Cc1c(C#N)c2nnn(-c3ccccc3)c(=O)n2c1-c1ccccc1 | > 39.4 | 0.801 | > 100 |  | > 100 | 13.2 | > 29.5 | > 100 | > 56.8 | > 100 |  |  |  |  |  |  |  |  |  |
| C=CCC1(CC)C(=O)NC(=O)NC1=O | > 100 | > 100 | > 100 | > 100 |  | > 100 | > 100 | > 100 | > 100 |  |  |  |  |  |  |  |  |  |  |
| COc1cccc(NC(=O)CC(=O)NNCC(=O)Nc2nnc(-c3ccc(N(CCC#N)S(=O)(=O)c4ccccc4)cc3)s2)c1 | > 100 | > 100 | > 100 |  | > 100 | > 100 | > 100 | > 100 | > 100 |  |  |  |  |  |  |  |  |  |  |
